Where a name gives a salt, the structure may show the parent alone.
Test system: Pseudomonas aeruginosa PAM1001
Test: microbe, parasite or virus in culture
Format: cell-based
Conditions: for inhibition at 2.5 µg/mL / inhibition at 5 µg/mL / inhibition at 10 µg/mL / inhibition at 20 µg/mL / inhibition at 40 µg/mL: Pseudomonas aeruginosa, PAM1001, read-out: Inhibition (%) of growth of P. aeruginosa PAM1001; for Inhibition (%) of growth of P. aeruginosa PAM1001: Levofloxacin 0.25 μg/mL
Procedure: For compounds labeled with the prefix ‘D’, potentiation is measured by inhibition of growth of Pseudomonas aeruginosa PAM1001 at varying concentrations of efflux pump inhibitors (EPIs) in the presence of levofloxacin (0.25 microg/mL). Bacteria are grown in Mueller Hinton Broth (MHB, Difco) with an initial inoculum of 1×10^6 CFU/mL. Kinetics of bacterial growth is monitored, during 18 h of incubation at 37° C., by measurement of the culture absorbance at 650 nm using a 96-well plate spectrophotometer (SpectraMax, Molecular Devices). The inhibitory effect of EPIs is expressed as a percentage of growth inhibition compared to a control bacterial culture grown in the presence of 0.25 microg/mL levofloxacin but without EPIs.

[1] = Concentration of Compound 2.5 μg/mL
[2] = Concentration of Compound 5 μg/mL
[3] = Concentration of Compound 10 μg/mL
[4] = Concentration of Compound 20 μg/mL
[5] = Concentration of Compound 40 μg/mL

Compound	inhibition at 2.5 µg/mL [%]	inhibition at 5 µg/mL [%]	inhibition at 10 µg/mL [%]	inhibition at 20 µg/mL [%]	inhibition at 40 µg/mL [%]	Inhibition (%) of growth of P. aeruginosa PAM1001 [1] [%]	Inhibition (%) of growth of P. aeruginosa PAM1001 [2] [%]	Inhibition (%) of growth of P. aeruginosa PAM1001 [3] [%]	Inhibition (%) of growth of P. aeruginosa PAM1001 [4] [%]	Inhibition (%) of growth of P. aeruginosa PAM1001 [5] [%]
NCC(=O)N[C@H]1CN[C@H](C(=O)Nc2ccc(Cc3ccccc3)cc2)C1 [Compound D308, trans-4-Glycylamino-L-Proline 4-Benzylphenylamide Dihydrochloride]	16	14	98	100	100					
NCC(=O)N[C@H]1CN[C@H](C(=O)Nc2ccc(Oc3ccc(Cl)cc3)cc2)C1 [Compound D303, trans-4-Glycylamino-L-Proline 4-(4′-Chlorophenoxy)-phenylamide Dihydrochloride]	18	91	100	100	99					
Cc1c(Cl)cccc1N1CCN(C(=O)[C@H]2C[C@H](NC(=O)[C@@H](O)CN)CN2)CC1 [Compound D402, 1-[trans-4-((2S)-3-Amino-2-Hydroxypropionylamino)-D-Prolyl]-4-(3-Chloro-2-Methylphenyl)piperazine Dihydrochloride]	19	71	99	100	101					
Cl.Cl.NCC(=O)N[C@H]1CN[C@H](C(=O)N2CCN(c3ccc(Cl)cc3)CC2)C1 (relative stereo) [Compound D403, 1-(N-trans-4-Glycylamino-L-Prolyl)-4-(4-Chlorophenyl)piperazine Dihydrochloride]						25	22	22	4	61
CC(C)(C)c1ccc(NC(=O)[C@@H]2C[C@@H](NC(=O)CN)CN2)cc1 [Compound D313, trans-4-Glycylamino-L-Proline 4-tert-Butylphenyl-amide Dihydrochloride]	17	17	96	99	99					
NCC(=O)N[C@H]1CN[C@H](C(=O)N2CCC(Oc3ccc(OCc4ccccc4)cc3)CC2)C1 [Compound D413, 1-(trans-4-Glycylamino-L-Prolyl)4-(4-Benzyloxyphenoxy)piperidine Dihydrochloride]	13	8	97	100	100					
trans-4-Glycylamino-L-Proline 3-Biphenylamide Dihydrochloride [Compound D306]						19	7	93	100	99
NCC(=O)N[C@H]1CN[C@H](C(=O)Nc2ccc(Nc3ccccc3)cc2)C1 [Compound D304, trans-4-Glycylamino-L-Proline 4-Phenylamino-phenylamide Dihydrochloride]	17	15	10	-11	100					
NCC(=O)N[C@H]1CN[C@H](C(=O)N[C@H](CCc2ccccc2)C(=O)Nc2cnc3ccccc3c2)C1 [Compound D201, trans-4-Glycylamino-L-Prolyl-D-Homophenylalanine 3-Quinolylamide Trihydrochloride]	17	9	99	100	100					
CNCC(=O)N[C@H]1CN[C@H](C(=O)N2C[C@H](NC(=O)[C@H](O)CCc3ccccc3)C[C@H]2C(=O)Nc2cnc3ccccc3c2)C1.Cl.Cl.Cl (relative stereo) [Compound D106]						19	19	20	19	100
NCCC[C@@H](N)C(=O)N1C[C@H](NC(=O)CCCc2ccccc2)C[C@H]1C(=O)Nc1ccc2c(c1)CCC2 [Compound D121, D-Ornithyl-trans-4-(4-Phenylbutanoyl)amino-L-Proline 5-Indanylamide]	15	99	100	100	100					
NC[C@H]1CN[C@H](C(=O)N2C[C@H](NC(=O)[C@H](O)CCc3ccccc3)C[C@H]2C(=O)Nc2cnc3ccccc3c2)C1 (mixture of isomers) [Compound D109, trans-4-Aminomethyl-L-Prolyl-trans-4-((R)-2-Hydroxy-4-Phenylbutyrylamino)-L-Proline 3-Quinolylamide Trihydrochloride]	17	21	98	100	100					
Cc1cc(NC(=O)[C@@H](CCc2ccccc2)NC(=O)[C@@H]2C[C@@H](NC(=O)CN)CN2)ccc1Cl [Compound D206, trans-4-Glycylamino-L-Prolyl-D-Homophenylalanine 4-Chloro-3-Methylphenylamide Dihydrochloride]	16	10	100	99	100					
Cl.Cl.Cl.NCC(=O)N[C@@H]1CCN[C@H](C(=O)N2C[C@H](NC(=O)[C@H](O)CCc3ccccc3)C[C@H]2C(=O)Nc2cnc3ccccc3c2)C1 (relative stereo) [Compound D115, cis-4-Glycylamino-L-Pipecolinoyl-trans-4-((R)-2-Hydroxy-4-Phenylbutyrylamino)-L-Profine 3-Quinolylamide Trihydrochloride]						15	16	8	50	100
trans-4-Glycylamino-L-Prolyl-4-(2-Chloro-5-Methylphenoxy)-piperidine Dihydrochloride [Compound D416]						21	11	87	99	99
NCC(O)C[C@H](N)C(=O)N1C[C@H](NC(=O)CCCc2ccccc2)C[C@H]1C(=O)Nc1ccc2c(c1)CCC2 (stereo partly drawn) [Compound D125, 4-Hydroxy-L-Ornithyl-trans-4-(4-Phenylbutanoyl)amino-L-Proline 5-Indanylamide Dihydrochloride]	15	100	100	100	100					
NCC(=O)N[C@@H]1CN[C@@H](C(=O)N2C[C@H](NC(=O)[C@H](O)CCc3ccccc3)C[C@H]2C(=O)Nc2cnc3ccccc3c2)C1 (mixture of isomers) [Compound D105, trans-4-Glycylamino-D-Prolyl-trans-4-((R)-2-Hydroxy-4-Phenylbutyrylamino)-L-proline 3-Quinolylamide Trihydrochloride]	19	18	50	99	101					
Cl.Cl.Cl.NC[C@H](O)C(=O)N[C@H]1CN[C@H](C(=O)N2C[C@H](NC(=O)[C@H](O)CCc3ccccc3)C[C@H]2C(=O)Nc2cnc3ccccc3c2)C1 (relative stereo) [Compound D108, trans-4-((S)-3-Amino-2-Hydroxypropionylamino)-L-Prolyl-trans-4-((R)-2-Hydroxy-4-Phenylbutyrylamino)-L-Proline 3-Quinolylamide Trihydrochlonde]						23	22	22	100	101
Cc1cc(C)cc(NC(=O)[C@@H](CCc2ccccc2)NC(=O)[C@@H]2C[C@@H](NC(=O)CN)CN2)c1 [Compound D205, trans-4-Glycylamino-L-Prolyl-D-Homophenylalanine 3,5-Dimethylphenylamide Dihydrochloride]	16	13	100	100	100					
trans-4-Glycylamino-D-proline 3-Biphenylamide Dihydrochloride [Compound D307]						24	5	90	100	100
Cl.Cl.NCC(=O)N[C@@H]1CN[C@@H](C(=O)N2CCC(Oc3cc(Cl)cc(Cl)c3)CC2)C1 [Compound D415]						13	99	100	100	100
NCCNC(=O)[C@@H]1C[C@@H](Oc2cccc(-c3ccccc3)c2)CN1 [Compound D601, trans-4-(3-Biphenyloxy)-L-Proline 2-Aminoethylamide Dihydrochloride]	20	18	16	86	100					

— patent publication US6399629B1, “Efflux pump inhibitors” (priority 1998, dated 2002)
